Assay results taken from ChEMBL document CHEMBL4834475, “Synthesis of anti-proliferative [3.3.0]furofuranone derivatives by lactonization and functionalization of C-glycosyl compounds” (Bioorg Med Chem, 2021).
Activity calls are given as the source filed them. No cut-off for these calls is given here.

Legend:
U-87 MG [1] = assay: Antiproliferative activity against human U87 cells assessed as reduction in cell viability measured after 72 hrs by MTT assay; format: functional, cell-based, U-87MG ATCC
MDA-MB-231 [2] = assay: Antiproliferative activity against human MDA-MB-231 cells assessed as reduction in cell viability measured after 72 hrs by MTT assay; format: functional, cell-based; settings: MDA-MB-231, 72 h
U-251 [3] = assay: Antiproliferative activity against human U-251 cells assessed as reduction in cell viability measured after 72 hrs by MTT assay; format: functional, cell-based; settings: U-251, 72 h
U-251 [4] = assay: Induction of cell cycle arrest in human U-251 cells assessed as accumulation at S phase at 1 uM measured after 72 hrs by propidium iodide staining based flow cytometry; format: functional
U-251 [5] = assay: Induction of cell cycle arrest in human U-251 cells assessed as accumulation at G1 phase at 1 uM measured after 72 hrs by propidium iodide staining based flow cytometry; format: functional
U-251 [6] = assay: Induction of cell cycle arrest in human U-251 cells assessed as accumulation at G2/M phase at 1 uM measured after 72 hrs by propidium iodide staining based flow cytometry; format: functional
Daoy [7] = assay: Antiproliferative activity against human Daoy cells assessed as reduction in cell viability measured after 72 hrs by MTT assay; format: functional, cell-based
U-251 [8] = assay: Antiproliferative activity against human U-251 cells assessed as reduction in cell viability at 0.1 to 250 uM measured after 72 hrs by MTT assay; format: functional, cell-based; settings: dose 0.1-250 µM
Daoy [9] = assay: Antiproliferative activity against human Daoy cells assessed as reduction in cell viability at 0.1 to 250 uM measured after 72 hrs by MTT assay; format: functional, cell-based; settings: dose 0.1-250 µM
MDA-MB-231 [10] = assay: Antiproliferative activity against human MDA-MB-231 cells assessed as reduction in cell viability at 0.1 to 250 uM measured after 72 hrs by MTT assay; format: functional, cell-based; settings: dose 0.1-250 µM
U-87 MG [11] = assay: Antiproliferative activity against human U87 cells assessed as reduction in cell viability at 0.1 to 250 uM measured after 72 hrs by MTT assay; format: functional, cell-based; settings: U-87MG ATCC, dose 0.1-250 µM
U-251 [12] = assay: Induction of apoptosis in human U-251 cells assessed as increase in accumulation of cells at sub-G1 phase at 0.1 uM measured after 72 hrs by propidium iodide staining based flow cytometry; format: functional, cell-based
U-251 [13] = assay: Induction of cell cycle arrest in human U-251 cells assessed as increase in accumulation of cells at G1 phase at 0.1 uM measured after 72 hrs by propidium iodide staining based flow cytometry; format: functional

Row | IC50 (U-87 MG [1]) [µM] | IC50 (MDA-MB-231 [2]) [µM] | IC50 (U-251 [3]) [µM] | Structure (SMILES) | Activity (U-251 [4]) | Activity (U-251 [5]) | Activity (U-251 [6]) | IC50 (Daoy [7]) [µM] | Activity (U-251 [8]) | Activity (Daoy [9]) | Activity (MDA-MB-231 [10]) | Activity (U-87 MG [11]) | Activity (U-251 [12]) | Activity (U-251 [13])
1 | 32.4 | 535 | 1.34 | O=C(/C=C/c1ccccc1)O[C@H](c1ccccc1)[C@@H]1O[C@@H]2CC(=O)O[C@@H]2[C@@H]1O | inactive | inactive | inactive | 612 |  |  |  |  |  | 
2 |  |  |  | O=C1C[C@H]2O[C@@H]([C@H](O)c3ccccc3)[C@@H](O)[C@H]2O1 |  |  |  |  | inactive | inactive | inactive | inactive |  | 
3 |  |  |  | O=C1C[C@H]2O[C@@H](CO)[C@@H](OCc3ccccc3)[C@H]2O1 |  |  |  |  | inactive | inactive | inactive | inactive |  | 
4 | 7.61 |  | 529 | O=C1C[C@H]2O[C@@H](CI)[C@@H](O)[C@H]2O1 | inactive | inactive | inactive | 141 |  |  |  |  |  | 
5 |  |  |  | O=C1C[C@H]2O[C@@H](CO)[C@@H](O)[C@H]2O1 |  |  |  |  | inactive | inactive | inactive | inactive |  | 
6 | 0.186 | 0.482 | 0.106 | COc1cccc2c1C(=O)c1c(O)c3c(c(O)c1C2=O)C[C@@](O)(C(=O)CO)C[C@@H]3O[C@H]1C[C@H](N)[C@H](O)[C@H](C)O1 [DOXORUBICIN] |  |  |  | 0.0629 |  |  |  |  | Active | Active
7 |  |  |  | O=C1C[C@H]2O[C@@H]([C@@H](O)c3ccccc3)[C@@H](O)[C@H]2O1 |  |  |  |  | inactive | inactive | inactive | inactive |  | 
8 |  |  |  | O=C1C[C@H]2O[C@H](CO)[C@@H](OCc3ccccc3)[C@H]2O1 |  |  |  |  | inactive | inactive | inactive | inactive |  | 
9 |  |  |  | O=C1C[C@H]2O[C@H](CO)[C@@H](O)[C@H]2O1 |  |  |  |  | inactive | inactive | inactive | inactive |  | 
